Literature values as cited in patent publication US5897876A, “Emulsified drug delivery system” (Shire Laboratories Inc., priority 1997, dated 1999).

System: peptide transport
Conditions: in other vehicles; "known"

Compound | promote peptide transport
CCCCC/C=C\C/C=C\CCCCCCCC(=O)O [linoleic acid] | known to promote peptide transport in other vehicles
CCCCCCCC/C=C\CCCCCCCC(=O)O [oleic acid] | known to promote peptide transport in other vehicles
